Bounds are passed on as bounds.

One assay addresses Human LDHA (Homo sapiens (Human), UniProt P00338). In words: human LDHA primary biochemical assay (resazurin/diaphorase coupled, fluorescence). The conditions noted are these: LDHA inhibitory activity, activity level based on IC50 (Table 7). The text has this: Test compounds were placed in a Greiner Bio-One (Monroe, N.C.) 1536-well black solid bottom assay plate. 200 millimolar (mM) Tris HCl, pH 7.4, 100 micromolar […] EDTA and 0.01% TWEEN-20™, final concentration, was used as the assay buffer. The LDHA reagent was 2 nanomolar (nM) Human LDHA (Meridian Life Science, Inc., Memphis, Tenn.), final concentration, in assay buffer.
(In general: Alamar Blue is a resazurin reagent that responds to reducing activity.)
In the case of `CC(C)Oc1cccc(-c2nn(-c3nc(C(=O)O)cs3)cc2Cc2ccc(S(N)(=O)=O)cc2)c1` [Compound 459, 2-(3-(3-isopropoxyphenyl)-4-(4-sulfamoylbenzyl)-1H-pyrazol-1-yl)thiazole-4-carboxylic acid], the IC50 was < 0.1 µM.

Consider `NS(=O)(=O)c1ccc(Cc2cn(-c3nc(C(=O)O)cs3)nc2-c2cccc(Oc3ccccc3)c2)cc1` [Compound 464, 2-(3-(3-phenoxyphenyl)-4-(4-sulfamoylbenzyl)-1H-pyrazol-1-yl)thiazole-4-carboxylic acid], for which the IC50 is < 0.1 µM.

Turning to `NS(=O)(=O)c1ccc(Cc2cn(-c3nc(C(=O)O)cs3)nc2-c2cccc(OCC3CCOC3)c2)cc1` (stereo not shown) [Compound 461, 2-(4-(4-sulfamoylbenzyl)-3-(3-((tetrahydrofuran-3-yl)methoxy)phenyl)-1H-pyrazol-1-yl)thiazole-4-carboxylic acid], the IC50 is < 0.1 µM.

With `Cc1ccc(C#Cc2cccc(-c3nn(-c4nc(C(=O)O)cs4)c(CC4CC4)c3Cc3ccc(S(N)(=O)=O)c(F)c3)c2)s1` [Compound 449], the IC50 was < 0.1 µM.

Staying with this assay, now noted: LDHA inhibitory activity, assay of Example 1; activity level classes.
For the compound `CC(C)(C)OC(=O)c1csc(-n2nc(-c3ccc(F)c(F)c3)c(-c3ccccc3)c2O)n1` [Compound 118, tert-butyl 2-(3-(3,4-difluorophenyl)-5-hydroxy-4-phenyl-1H-pyrazol-1-yl)thiazole-4-carboxylate], the IC50 is > 57 µM.

As to `Nc1c(Cc2ccc(S(N)(=O)=O)cc2)c(-c2ccccc2)nn1-c1nccc(O)n1` [Compound 152, 4-((5-amino-1-(4-hydroxypyrimidin-2-yl)-3-phenyl-1H-pyrazol-4-yl)methyl)benzenesulfonamide], the IC50 is > 57 µM.

`O=C(O)c1csc(-n2nc(-c3ccc(F)c(F)c3)c3cccc(O)c32)n1` [Compound 119, 2-(3-(3,4-difluorophenyl)-7-hydroxy-1H-indazol-1-yl)thiazole-4-carboxylic acid]: the IC50 was > 57 µM.

In the case of `COC(=O)c1csc2c1c(=O)[nH]c1cc(-c3ccc(F)c(F)c3)nn12` [Compound 115, methyl 2-(3,4-difluorophenyl)-5-oxo-4,5-dihydropyrazolo[1,5-a]thieno[3,2-e]pyrimidine-6-carboxylate], the IC50 is > 57 µM.

Consider `CCOC(=O)c1csc(-n2nc(-c3cccc(-c4ccccc4)c3)c(Cc3ccc(S(N)(=O)=O)cc3)c2CC2CC2)n1` [Compound 279], for which the IC50 was 1 to 57 µM.

On to `NS(=O)(=O)c1ccc(Cc2c(-c3ccc(F)c(-c4cccc(F)c4)c3)nn(-c3nc(C(=O)O)cs3)c2C2CC2)c(F)c1` [Compound 255], for which the IC50 is < 0.1 µM.

In turn, `CCOC(=O)c1csc(-n2nc(-c3ccc(F)c(-c4ccc(C)cc4)c3)c(Cc3ccc(S(N)(=O)=O)c(F)c3)c2C2CC2)n1` [Compound 245] registered an IC50 of 1 to 57 µM.

As for `C#Cc1c(Cc2ccc(S(N)(=O)=O)cc2)c(-c2ccccc2)nn1-c1nc(C(=O)O)cs1` [Compound 271], the IC50 fell in the range of 1 to 57 µM.

In the case of `CCOC(=O)c1csc(-n2nc(C3CC3)c(Oc3ccc(S(N)(=O)=O)cc3)c2-c2ccccc2)n1` [Compound 163, ethyl 2-(3-cyclopropyl-5-phenyl-4-(4-sulfamoylphenoxy)-1H-pyrazol-1-yl)thiazole-4-carboxylate], the IC50 is > 57 µM.

Still in this assay, the particulars now being: read-out: Inhibitory activity IC50.
Turning to `Cc1noc(C)c1-c1cc(-c2c(Cc3ccc(S(N)(=O)=O)cc3F)c(CC3CC3)nn2-c2nc(C(=O)O)cs2)ccc1F` [Compound 216, 2-(3-(cyclopropylmethyl)-5-(3-(3,5-dimethylisoxazol-4-yl)-4-fluorophenyl)-4-(2-fluoro-4-sulfamoylbenzyl)-1H-pyrazol-1-yl)thiazole-4-carboxylic acid], the IC50 was > 57 µM.

`N#CCc1cc(-c2ccc(F)c(F)c2)nn1-c1nc(C(=O)O)cs1` [Compound 74, 2-(5-(cyanomethyl)-3-(3,4-difluorophenyl)-1H-pyrazol-1-yl)thiazole-4-carboxylic acid]: the IC50 is 1 to 57 µM.

For the compound `Cc1ccc(-c2cc(-c3c(Cc4ccc(S(N)(=O)=O)c(F)c4)c(CC4CC4)nn3-c3nc(C(=O)O)cs3)ccc2F)s1` [Compound 228, 2-(3-(cyclopropylmethyl)-5-(4-fluoro-3-(5-methylthiophen-2-yl)phenyl)-4-(3-fluoro-4-sulfamoylbenzyl)-1H-pyrazol-1-yl)thiazole-4-carboxylic acid], the IC50 was > 57 µM.

Turning to `NS(=O)(=O)c1ccc(Cc2c(C3CC3)nn(-c3nc(C(=O)O)cs3)c2-c2cccc(-c3ccccc3)c2)c(F)c1` [Compound 182], the half-maximal inhibitory concentration (IC50) lay in the range of 1 to 57 µM.

In the case of `CC(C)c1ccc(-c2cc(-c3c(Cc4ccc([S+](N)(=O)[O-])cc4)c(CC4CC4)nn3-c3nc(C(=O)O)cs3)ccc2F)cc1` [Compound 305], the IC50 was 1 to 57 µM.

With `N[S+](=O)([O-])c1ccc(Cc2c(CC3CC3)nn(-c3nc(C(=O)O)cs3)c2-c2ccc(F)c(-c3cccc(F)c3)c2)cc1` [Compound 238], the IC50 lay in the range of 1 to 57 µM.

Regarding `Nc1c(Cc2ccc(S(N)(=O)=O)cc2)c(-c2ccccc2)nn1-c1nc(C(=O)O)co1` [Compound 153, 2-(5-amino-3-phenyl-4-(4-sulfamoylbenzyl)-1H-pyrazol-1-yl)oxazole-4-carboxylic acid], the IC50 lay in the range of 0.1 to 1 µM.

Turning to `N[S+](=O)([O-])c1ccc(Cc2c(CC3CC3)nn(-c3nc(C(=O)O)cs3)c2-c2cccc(-c3ccccc3)c2)c(F)c1` [Compound 289], the IC50 was 1 to 57 µM.

For the compound `NS(=O)(=O)c1ccc(Oc2cn(-c3nc(C(=O)O)cs3)nc2-c2ccccc2)cc1` [Compound 33, 2-(3-phenyl-4-(4-sulfamoylphenoxy)-1H-pyrazol-1-yl)thiazole-4-carboxylic acid], the IC50 was < 0.1 µM.

As for `COc1cc(-c2c(Cc3ccc([S+](N)(=O)[O-])cc3)c(CC3CC3)nn2-c2nc(C(=O)O)cs2)ccc1F` [Compound 277], the IC50 lay in the range of 1 to 57 µM.

In the case of `O=C(O)c1csc(-n2nc(-c3ccc(F)cc3F)cc2O)n1` [Compound 97, 2-(3-(2,4-difluorophenyl)-5-hydroxy-1H-pyrazol-1-yl)thiazole-4-carboxylic acid], the IC50 is > 57 µM.

As to `CCOc1c(Cc2ccc(S(N)(=O)=O)cc2)c(-c2ccc(F)c(F)c2)nn1-c1nc(C(=O)O)cs1` [Compound 61, 2-(3-(3,4-difluorophenyl)-5-ethoxy-4-(4-sulfamoylbenzyl)-1H-pyrazol-1-yl)thiazole-4-carboxylic acid], the IC50 fell in the range of 0.1 to 1 µM.

With `NS(=O)(=O)c1ccc(Cc2c(-c3ccccc3)nn(-c3nc(C(=O)O)cs3)c2Nc2cccnc2)cc1` [Compound 80, 2-(3-phenyl-5-(pyridin-3-ylamino)-4-(4-sulfamoylbenzyl)-1H-pyrazol-1-yl)thiazole-4-carboxylic acid], the IC50 lay within 1 to 57 µM.

On to `NS(=O)(=O)c1ccc(Cc2cn(-c3nc(C(=O)O)cs3)nc2-c2ccccc2)cc1` [Compound 19, 2-(3-phenyl-4-(4-sulfamoylbenzyl)-1H-pyrazol-1-yl)thiazole-4-carboxylic acid], for which the IC50 is < 0.1 µM.

For the compound `CCOC(=O)c1csc(-n2nc(-c3cccc(-c4ccccc4)c3)c(Cc3ccc(S(N)(=O)=O)cc3)c2N)n1` [Compound 56, ethyl 2-(3-([1,1′-biphenyl]-3-yl)-5-amino-4-(4-sulfamoylbenzyl)-1H-pyrazol-1-yl)thiazole-4-carboxylate], the IC50 fell in the range of 1 to 57 µM.

The term IC50 denotes the concentration needed to halve the response being measured.
